The test system of test [1] is C. albicans SC5314 sensitive strain. In words: Anti-fungal susceptibility assay (CLSI M27-A3), sensitive strain. The class given is cell-based. The note with it: Candida albicans, 48 h incubation at 37 °C. As for the experimental part: An anti-fungal assay was carried out on the basis of the Clinical and Laboratory Standards Institute (CLSI) method M27-A3 [45, 48]. A single colony of Candida albicans (the resistant strain 901 or the sensitive strain 5314) was chosen from Sabouraud’s agar and then inoculated in yeast extract peptone dextrose medium (YEPD) for activation by shake bottled cultivation (200 rpm, 37 °C). After 16 h, fungi in the late-exponential growth phase were obtained, followed by being adjusted to 1 × 10^3–5 × 10^3 CFU/mL with RPMI 1640 medium. The density of the fungi in 96-well plates was 10^3 CFU/mL, while the final concentrations of the test compounds ranged from 64 to 0.125 μg/mL in triplicate. The assay volume in each well was 100 μL with MIC80 determined following 48 h incubation at 37 °C. Optical density was measured with a microplate reader (Multiskan MK3; Labsystems, Nantaa, Finland) at 630 nm. MIC80 was determined as the lowest concentration of the drugs that inhibited growth by 80% compared with the […]. Fluconazole was used as the positive control.

The next test has as its system NF-κB. In words: NF-κB inhibitory assay (luciferase, HEK293 with stable NF-κB expression, TNF-α stimulation). Format: cell-based. The note with it: read-out: NF-κB (IC50). How it is done: HEK293 with a stable NF-κB expression cell line was used for the luciferase assay. Cells were maintained at 37 °C and 5% CO2 atmosphere in Dulbecco’s modified Eagle’s medium with 100 U/mL benzylpenicillin 100 μg/mL streptomycin, 2 mM glutamine, and 10% fetal bovine serum. Before seeding in 96-well plates, the cells were stained for 1 h in serum-free medium supplemented with […] cell Tracker Green CMFDA. Cells were seeded into 96-well plates and incubated for 24 h, and then treated with different concentrations of the tested compounds followed by stimulation with 20 ng/mL TNF-α. The luciferase substrate was added to each well after incubation for 6 h, and then the released luciferin signal was detected using an EnVision microplate reader. The IC50 value was derived from a nonlinear regression model (curve-fit), based on a sigmoidal dose response curve (variable slope) and computed using Graphpad Prism 5 (Graphpad Software). Bortezomib (PS-341, CAS No. 179324-69-7) was used as the positive control.

Values after ≈ are worked out from the molar mass of the structure shown. Read-outs that look alike come from different tables or passages of the source.

In test [1], `CC1(C)CC[C@]2(C(=O)O)CC[C@]3(C)C(=CC[C@@H]4[C@@]5(C)C[C@@H](O)[C@@H](O)[C@@](C)(CO)[C@@H]5CC[C@]43C)[C@@H]2C1` [Compound 12] yielded an MIC80 of 32 µg/mL (≈ 65.5 µM).
With `CC(C)(O)/C=C/C(=O)[C@](C)(O)[C@H]1[C@H](O)C[C@@]2(C)[C@@H]3CC=C4[C@@H](C[C@H](O)C(=O)C4(C)C)[C@]3(C)C(=O)C[C@]12C` [Compound 16, cucurbitacin D], the 50% inhibitory concentration (IC50) in the test on NF-κB (Homo sapiens, HEK293, 6 h) is 610 ± 120 nM.
Take `CC(C)(O)/C=C/C(=O)[C@](C)(O)[C@H]1[C@H](O)C[C@@]2(C)[C@@H]3CC=C4[C@@H](CC(=O)[C@@H](O)C4(C)C)[C@]3(C)C(=O)C[C@]12C` [Compound 17, 3α,16α,20(R),25-tetrahydroxy-cucurbita-5,23-dien-2,11,22-trione]: the IC50 in the test on NF-κB (Homo sapiens, HEK293, 6 h) worked out at 1600 ± 320 nM.
For the molecule `OC(Cn1cncn1)(Cn1cncn1)c1ccc(F)cc1F` [Fluconazole, reference compound], the MIC80 in test [1] was found to be 0.125 µg/mL (≈ 0.408 µM).
With `CC(C)C[C@H](NC(=O)[C@H](Cc1ccccc1)NC(=O)c1cnccn1)B(O)O` [PS-341, Bortezomib, reference compound], in the test on NF-κB (Homo sapiens, HEK293 NF-κB luciferase, 20 ng/mL TNF-α, 6 h, mean SEM of triplicated experiments), the IC50 is 440 ± 80 nM.
For cucurbitacin B [Compound 15], in the test with NF-κB (HEK293 NF-κB luciferase, 20 ng/mL TNF-α, 6 h, mean SEM of triplicated experiments), the 50% inhibitory concentration (IC50) was 80 ± 30 nM.

For orientation: MIC80 means the lowest concentration that inhibits either 80% of growth or 80% of the strains tested, depending on the study. A low value points to greater potency. As usually defined, the IC50 is the concentration that gives 50% inhibition.
